Patent US20250228851A1, “ALLOSTERIC INHIBITOR COMPOUNDS FOR OVERCOMING CANCER RESISTANCE” (priority 2021, published 2025)

System: p185-Ba/F3 (WT-Ba/F3-p185-BCR-ABL)
Experiment: Proliferation by trypan blue exclusion, p185-Ba/F3
Type: cell-based, murine
Conditions: p185-Ba/F3, 1.0, 2.0 and 5.0 μM
Protocol: • 1. Ba/F3 cells were obtained from the German Collection of Microorganisms and Cell Cultures (DSMZ, Braunschweig, Germany) and maintained in RPMI 1640 medium supplemented with 10% fetal calf serum (Invitrogen) containing 10 ng/ml of interleukin-3 (Cell Concepts, Umkirch, Germany). Ecotropic Phoenix cells and Rat-1 cells were cultured in Dulbecco's modified Eagle's medium supplemented with 10% fetal calf serum. GNF-2 (Sigma-Adrich, Steinheim, Germany) was dissolved in dimethyl sulfoxide and added at a final concentration of […]. Cell growth was assessed by dye exclusion using Trypan blue. Proliferation was assessed using the XTT proliferation kit (Roche, Mannheim, Germany), according to the manufacturer's instructions. • 2. Ba/F3: IL-3 dependent lymphatic murine pro B cell line. […]
FIGS. 4A and 4B. […] All cell lines were treated with the indicated concentrations of Compound 16 for total period of five days and proliferation was determined by trypan blue exclusion of viable cells. […] For factor-independent growth, the number of viable cells was determined at day 3 by trypan blue dye exclusion.

With `COc1ccc(C(=O)N2CCN(c3cc(Nc4ccc(OC(F)(F)F)cc4)ncn3)CC2)cc1OC` [Compound 16] the “effect on proliferation (in words)” value was “inhibits the proliferation”.
